# From patent US20230357162A1, “COMPOUNDS, COMPOSITIONS AND METHODS” (Denali Therapeutics Inc., priority 2020, published 2023)
# Where a name gives a salt, the structure may show the parent alone.
# System: IL-1β secretion, THP-1 cells
# Experiment: IL-1β secretion assay in PMA-differentiated THP-1 cells stimulated with LPS and nigericin (ELISA readout)
# Format: cell-based
# Conditions: Homo sapiens, THP-1, inhibition of IL-1β secretion, 25 ng/mL LPS then nigericin
# Procedure: Compounds as provided herein were tested in the following assay. Cell culture medium employed contained RPMI 1640 medium (89%), FBS (10%), Pen/Strep (1%), and 2-mercaptoethanol (0.05 mM). Freezing medium was made up of 90% FBS and 10% DMSO. THP-1 cells were removed from the liquid nitrogen and placed into a 37° C. water bath to thaw, until signs of ice dissipated. The cells were then added to 9 mL of warm cell culture medium and centrifuged for 5 minutes at 1000 rpm. The supernatant was discarded, and the cells were resuspended in new cell culture medium. THP-1 cells were then split and cultured in the cell culture medium, being passaged every 2-3 days with the cell density will be maintained between 5×10^5 and 1.5×10^6 viable cells/mL.
# PMA was dissolved in DMSO to make a stock solution at 5 mg/ml and stored in 10 µl aliquots at -20° C. for single use. PMA is added to normal growth medium. LPS was diluted with 1 mL of water solution to provide a 1 mg/mL stock solution and stored in 15 µl aliquots at -20° C. for single use. Nigericin is diluted in ice cold 100% ethanol to 5 mg/ml (6.7 mM) and stored in 75 µL aliquots at -20° C. for single use. Serum-free media contains RPMI 1640 medium (99%), Pen/Strep (1%), and 2-mercaptoethanol (0.05 mM). The two control conditions used to qualify and normalize test compound dose-response curves were as follows: High Control = 25 ng/mL LPS, 5 µM Nigericin, 0.5% DMSO, Low Control = 25 ng/mL, LPS, 0.5% DMSO.
# THP-1 cells were diluted to provide a suspension at a concentration of 1.0×10^6 cells/mL with the total volume of suspension required to enable the desired number of assay plates. The growth media was supplemented with PMA (5 ng/mL final concentration) and the cells were incubated at 37° C. under a humidified atmosphere of 5% CO2 for 40 h.
# All media was carefully aspirated from each culture flask. The cells were washed carefully with 1x DPBS. The cells were then briefly digested with trypsin LE for 5 minutes at 23° C. and immediately resuspended in cell growth media. After resuspension, the cells were centrifuged at 1000 rpm for 3 minutes and the supernatant was discarded. The cells were resuspended in DPBS and once again centrifuged at 1000 rpm for 5 minutes. The supernatant was discarded and the cell pellet was resuspended in serum-free media supplemented with LPS (25 ng/mL final concentration) to enable the distribution of 30 K THP-1 cells within 45 µL of media into each well of 384-well PDL-coated plates. The 384-well plates were then incubated at 37° C. under a humidified atmosphere of 5% CO2 for 2 h. Following this period, test compounds were dispensed by Tecan across the desired concentration range with all wells normalized to a final 0.5 % DMSO concentration. The plates were then then incubated at 37° C. under a humidified atmosphere of 5% CO2 for 1 h. Following this period, 5 µL of the […] nigericin stock solution was added to each of the appropriate wells and plates were centrifuged at 1000 rpm for 30 seconds. The plates were the immediately reintroduced to the incubator at 37° C. under a humidified atmosphere of 5% CO2 for 2 h. After this time, 35 µL/well of supernatant was collected and transferred into v-bottom plate and centrifuged at 1000 rpm for 1 minute. These supernatant aliquots were analyzed using an IL-Iβ detection kit as described below. If needed, the test samples could be snap frozen and stored at -80° C. until analyzed.
# To prepare each ELISA plate, capture antibody (mAb Mt175) was diluted with PBS to a final concentration of 2 µg/mL and then 20 µL of this solution was added to each well of the ELISA plate. Each plate was allowed to incubate overnight at 4° C. The next day, the capture antibody solution was removed and discarded. Each ELISA plate was washed 4 times with PBST followed by the addition of 25 µL/well of blocking buffer (Licor-927-40010) supplemented with 0.1% Tween 20. Each ELISA plate was then allowed to incubate for 1 hour at 23° C. […]
IC50 (class column of Table 3) [µM],IC50 (numeric column of Table 3) [µM],Structure (SMILES)
< 10,0.461,"COc1nn(CC(=O)Nc2ncc(F)cn2)c(=O)c2ccc(C(F)(F)F)cc12 [Example 146, N-(5-fluoropyrimidin-2-yl)-2-[4-methoxy-1-oxo-6-(trifluoromethyl)phthalazin-2-yl]acetamide]"
< 10,4.27,"O=C(Cn1nc(OC2CC2)c2cc(Br)ccc2c1=O)N[C@@H]1CCCNC1 [Example 176, 2-(6-bromo-4-cyclopropyloxy-1-oxophthalazin-2-yl)-N-[(3R)-piperidin-3-yl]acetamide HCl salt]"
< 10,0.025,"CC(C)c1nn(CC(=O)Nc2ncc(Cl)cn2)c(=O)c2ccc(Br)cc12 [Example 120, 2-(6-bromo-1-oxo-4-propan-2-ylphthalazin-2-yl)-N-(5-chloropyrimidin-2-yl)acetamide]"
< 10,0.279,"O=C(Cn1nc(CF)c2cc(C(F)(F)F)ccc2c1=O)Nc1ncc(F)cn1 [Example 147, 2-[4-(fluoromethyl)-1-oxo-6-(trifluoromethyl)phthalazin-2-yl]-N-(5-fluoropyrimidin-2-yl)acetamide]"
< 10,0.455,CC(F)COc1nn(CC(=O)Nc2ncc(F)cn2)c(=O)c2ccc(Br)cc12 (centres unmarked) [Example 162]
< 10,3.99,"CC(C)c1nn(CC(=O)NCC2COCCN2C)c(=O)c2ccc(Br)cc12 (centres unmarked) [Example 58, 2-(6-bromo-1-oxo-4-propan-2-ylphthalazin-2-yl)-N-[(4-methylmorpholin-3-yl)methyl]acetamide]"
< 10,2.29,CC(Oc1nn(CC(=O)Nc2ncc(F)cn2)c(=O)c2ccc(Br)cc12)C1CC1 (centres unmarked) [Example 169]
< 10,0.286,"COc1ccc(NC(=O)Cn2nc(C(C)C)c3cc(Br)ccc3c2=O)cn1 [Example 29, 2-(6-bromo-1-oxo-4-propan-2-ylphthalazin-2-yl)-N-(6-methoxypyridin-3-yl)acetamide]"
< 10,1.21,O=C(Cn1nc(C(F)F)c2cc(Br)ccc2c1=O)Nc1ncc(Cl)cc1F [Example 134]
< 10,1.03,"CC(C)c1nn(CC(=O)Nc2ccnn2C2COC2)c(=O)c2ccc(Br)cc12 [Example 67, 2-(6-bromo-1-oxo-4-propan-2-ylphthalazin-2-yl)-N-[2-(oxetan-3-yl)pyrazol-3-yl]acetamide]"
< 10,3.05,"CC(C)c1nn(CC(=O)NC2CN(C(=O)OC(C)(C)C)CC(F)(F)C2)c(=O)c2ccc(Br)cc12 (centres unmarked) [Example 10, tert-Butyl-5-[[2-(6-bromo-4-isopropyl-1-oxo-phthalazin-2-yl)acetyl]amino]-3,3-difluoro-piperidine-1-carboxylate]"
< 10,3.35,"CC(C)c1nn(CC(=O)NC2CCC(F)(F)C2)c(=O)c2ccc(Br)cc12 (centres unmarked) [Example 42, 2-(6-bromo-1-oxo-4-propan-2-ylphthalazin-2-yl)-N-(3,3-difluorocyclopentyl)acet amide]"
< 10,0.091,"O=C(Cn1nc(CF)c2cc(Br)ccc2c1=O)Nc1ncc(F)cn1 [Example 142, 2-[6-bromo-4-(fluoromethyl)-1-oxophthalazin-2-yl]-N-(5-fluoropyrimidin-2-yl)acetamide]"
< 10,2.59,CCN1CC(NC(=O)Cn2nc(C(C)C)c3cc(Br)ccc3c2=O)CC(F)(F)C1 (centres unmarked) [Example 12]
< 10,0.737,"CC(C)c1nn(CC(=O)NC23CC(F)(C2)C3)c(=O)c2ccc(Br)cc12 [Example 118, 2-(6-bromo-1-oxo-4-propan-2-ylphthalazin-2-yl)-N-(3-fluoro-1-bicyclo[1.1.1]pentanyl)a cetamide]"
< 10,0.046,"CC(C)c1nn(CC(=O)N[C@@H]2CCCN(C3CC3)C2)c(=O)c2ccc(Br)cc12 [Example 5, (R)(6-Bromo-4-Isopropyl-1-Oxophthalazin-2(1H)-yl)-N-(1-Cyclopropylpiperidin-3-yl)Acetamide]"
< 10,1.2,"COc1c(Br)ccc2c(=O)n(CC(=O)Nc3ncc(F)cn3)nc(Cl)c12 [Example 141, 2-(6-bromo-4-chloro-5-methoxy-1-oxophthalazin-2-yl)-N-(5-fluoropyrimidin-2-yl)acetamide]"
< 10,0.03,"CC(C)c1nn(CC(=O)N[C@H]2C[C@@](C)(O)C2)c(=O)c2ccc(Br)cc12 [Example 1, 2-(6-Bromo-4-isopropyl-1-oxophthalazin-2(1H)-yl)-N-(cis-3-hydroxy-3-methylcyclobutyl)acetamide]"
< 10,0.078,"O=C(Cn1nc(C(F)F)c2c(F)c(Br)ccc2c1=O)Nc1ncc(F)cn1 [Example 26, 2-[6-bromo-4-(difluoromethyl)-5-fluoro-1-oxophthalazin-2-yl]-N-(5-fluoropyrimidin-2-yl)acetamide]"
< 10,6.74,"CCN1CCC[C@@H](NC(=O)Cn2nc(C(F)(F)F)c3ccc(Br)cc3c2=O)C1 [Example 90, 2-[7-bromo-1-oxo-4-(trifluoromethyl)phthalazin-2-yl]-N-[(3R)-1-ethylpiperidin-3-yl]acetamide]"
< 10,0.149,"O=C(Cn1nc(C2CC2)c2cc(Br)ccc2c1=O)Nc1ncc(F)cn1 [Example 164, 2-(6-bromo-4-cyclopropyl-1-oxophthalazin-2-yl)-N-(5-fluoropyrimidin-2-yl)acetamide]"
< 10,0.14,"O=C(Cn1nc(C(F)F)c2cc(Br)ccc2c1=O)Nc1ncccn1 [Example 93, 2-[6-bromo-4-(difluoromethyl)-1-oxo-phthalazin-2-yl]-N-pyrimidin-2-yl-acetamide]"
< 10,6.45,"CC(C)c1nn(CC(=O)NC2CC(n3cccn3)C2)c(=O)c2ccc(Br)cc12 (centres unmarked) [Example 117, 2-(6-bromo-1-oxo-4-propan-2-ylphthalazin-2-yl)-N-(3-pyrazol-1-ylcyclobutyl)acetamide]"
< 10,1.41,"CC(C)c1nn(CC(=O)NC2CCOC(C)(C)C2)c(=O)c2ccc(Br)cc12 (centres unmarked) [Example 60, 2-(6-bromo-1-oxo-4-propan-2-ylphthalazin-2-yl)-N-(2,2-dimethyloxan-4-yl)acetamide]"
< 10,0.087,"COc1nn(CC(=O)Nc2ncc(F)cn2)c(=O)c2ccc(Br)c(F)c12 [Example 140, 2-(6-bromo-5-fluoro-4-methoxy-1-oxophthalazin-2-yl)-N-(5-fluoropyrimidin-2-yl)acetamide]"
< 10,0.127,"O=C(Cn1nc(OC2CC2)c2cc(Br)ccc2c1=O)Nc1ncc(F)cn1 [Example 150, 2-(6-bromo-4-cyclopropyloxy-1-oxophthalazin-2-yl)-N-(5-fluoropyrimidin-2-yl)acetamide]"
> 15,16.1,"O=C(Cn1nc([C@H]2C[C@@H]2F)c2cc(Br)ccc2c1=O)Nc1ncc(F)cn1 [Example 167, 2-[6-bromo-4-[2-trans-fluorocyclopropyl]-1-oxophthalazin-2-yl]-N-(5-fluoropyrimidin-2-yl)acetamide]"

Structure (SMILES),IC50 (class column of Table 3) [µM],IC50 (numeric column of Table 3) [µM]
"CC1(C)CC(Oc2nn(CC(=O)Nc3ncc(F)cn3)c(=O)c3ccc(Br)cc23)C1 [Example 156, 2-[6-bromo-4-(3,3-dimethylcyclobutoxy)-1-oxo-phthalazin-2-yl]-N-(5-fluoropyrimidin-2-yl)acetamide]",< 10,0.07
